Results as given in patent US8288435B2, “2-aza-bicyclo[3.1.0]hexane derivatives as orexin receptor antagonists” (Actelion Pharmaceuticals Ltd., priority 2006, dated 2012).

Key:
human orexin-2 receptor = target: T1, human orexin-2 receptor (Homo sapiens, UniProt O43614); test: Intracellular calcium measurements (FLIPR), orexin receptor antagonistic activity, OX2; assay type: cell-based; conditions: CHO cells expressing the human orexin-2 receptor, 10 nM orexin-A as agonist
T1 construct: expressed in transfected cells; host or cells: CHO (Chinese hamster ovary) cells, G418 selection
T1 sequence (O43614 1-444): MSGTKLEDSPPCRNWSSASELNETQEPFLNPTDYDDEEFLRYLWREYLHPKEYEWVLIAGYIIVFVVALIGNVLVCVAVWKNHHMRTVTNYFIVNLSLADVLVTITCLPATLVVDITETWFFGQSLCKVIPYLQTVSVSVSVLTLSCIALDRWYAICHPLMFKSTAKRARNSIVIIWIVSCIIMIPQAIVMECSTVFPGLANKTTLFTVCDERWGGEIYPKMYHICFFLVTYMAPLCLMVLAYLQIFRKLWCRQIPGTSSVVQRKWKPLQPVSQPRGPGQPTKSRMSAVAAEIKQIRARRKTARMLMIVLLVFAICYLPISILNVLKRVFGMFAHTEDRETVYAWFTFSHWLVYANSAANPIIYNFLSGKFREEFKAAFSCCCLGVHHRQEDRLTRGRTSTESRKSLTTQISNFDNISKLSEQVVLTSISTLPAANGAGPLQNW
Method: (§1) The orexin receptor antagonistic activity of the compounds of formula (I) is determined in accordance with the following experimental method.
(§2) Intracellular Calcium Measurements:
(§3) Chinese hamster ovary (CHO) cells expressing the human orexin-1 receptor and the human orexin-2 receptor, respectively, are grown in culture medium (Ham F-12 with L-Glutamine) containing 300 μg/ml G418, 100 U/ml penicillin, 100 μg/ml streptomycin and 10% inactivated fetal calf serum (FCS). The cells are seeded at 80′000 cells/well into 96-well black clear bottom sterile plates (Costar) which have been precoated with 1% gelatine in Hanks' Balanced Salt Solution (HBSS). All reagents are from Gibco BRL. The seeded plates are incubated overnight at 37° C. in 5% CO2.
(§4) Human orexin-A as an agonist is prepared as 1 mM stock solution in MeOH:water (1:1), diluted in HBSS containing 0.1% bovine serum albumin (BSA) and 2 mM HEPES for use in the assay at a final concentration of 10 nM.
(§5) Antagonists are prepared as 10 mM stock solution in DMSO, then diluted in 96-well plates, first in DMSO, then in HBSS containing 0.1% bovine serum albumin (BSA) and 2 mM HEPES.
(§6) On the day of the assay, 100 μl of loading medium (HBSS containing 1% FCS, 2 mM HEPES, 5 mM probenecid (Sigma) and 3 μM of the fluorescent calcium indicator fluo-3 AM (1 mM stock solution in DMSO with 10% pluronic acid) (Molecular Probes) is added to each well.
(§7) The 96-well plates are incubated for 60 min at 37° C. in 5% CO2. The loading solution is then aspirated and cells are washed 3 times with 200 μl HBSS containing 2.5 mM probenecid, 0.1% BSA, 2 mM HEPES. 100 μl of that same buffer is left in each well.
(§8) Within the Fluorescent Imaging Plate Reader (FLIPR, Molecular Devices), antagonists are added to the plate in a volume of 50 μl, incubated for 20 min and finally 100 μl of agonist is added. Fluorescence is measured for each well at 1 second intervals, and the height of each fluorescence peak is compared to the height of the fluorescence peak induced by 10 nM orexin-A with buffer in place of antagonist. For each antagonist, IC50 value (the concentration of compound needed to inhibit 50% of the agonistic response) is determined.

human orexin-1 receptor = target: T2, human orexin-1 receptor (Homo sapiens, UniProt O43613); test: Intracellular calcium measurements (FLIPR), orexin receptor antagonistic activity, OX1; assay type: cell-based; conditions: CHO cells expressing the human orexin-1 receptor, 10 nM orexin-A as agonist
T2 construct: expressed in transfected cells; host or cells: CHO (Chinese hamster ovary) cells, G418 selection
T2 sequence (O43613 1-425): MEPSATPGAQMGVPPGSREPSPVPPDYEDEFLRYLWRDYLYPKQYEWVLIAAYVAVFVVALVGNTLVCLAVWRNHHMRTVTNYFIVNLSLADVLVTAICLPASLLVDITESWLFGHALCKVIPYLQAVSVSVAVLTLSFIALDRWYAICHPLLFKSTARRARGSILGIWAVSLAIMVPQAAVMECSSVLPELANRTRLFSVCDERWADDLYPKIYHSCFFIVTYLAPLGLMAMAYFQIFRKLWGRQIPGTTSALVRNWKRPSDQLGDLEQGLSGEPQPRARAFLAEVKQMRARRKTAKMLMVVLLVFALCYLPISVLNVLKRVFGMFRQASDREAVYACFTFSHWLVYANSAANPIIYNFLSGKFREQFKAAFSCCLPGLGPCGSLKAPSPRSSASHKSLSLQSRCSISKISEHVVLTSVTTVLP
Method: as §1, §2, §3, §4, §5, §6, §7, §8

| Compound | IC50 (human orexin-2 receptor) | IC50 (human orexin-1 receptor) |
| --- | --- | --- |
| COc1ccc(C(=O)NC[C@@H]2C[C@@H]3C[C@@H]3N2C(=O)c2nc(C)sc2-c2cccc(C)c2)cc1OC [Example 123, 3,4-Dimethoxy-N-[(1S,3S,5S)-2-(2-methyl-5-m-tolyl-thiazole-4-carbonyl)-2-aza-bicyclo[3.1.0]hex-3-ylmethyl]-benzamide] | 74 nM | 1980 nM |
| Cc1cccc(-c2sc(C)nc2C(=O)N2[C@H](CNC(=O)c3cccc4c3OCCN4C)C[C@@H]3C[C@@H]32)c1 [Example 130, 4-Methyl-3,4-dihydro-2H-benzo[1,4]oxazine-8-carboxylic acid [(1S,3S,5S)-2-(2-methyl-5-m-tolyl-thiazole-4-carbonyl)-2-aza-bicyclo[3.1.0]hex-3-ylmethyl]-amide] | 129 nM | 76 nM |
| Cc1nc(C(=O)N2[C@H](CNC(=O)c3noc4ccccc34)C[C@@H]3C[C@@H]32)c(-c2cccc(Cl)c2)s1 [Example 147, Benzo[d]isoxazole-3-carboxylic acid {(1S,3S,5S)-2-[5-(3-chloro-phenyl)-2-methyl-thiazole-4-carbonyl]-2-aza-bicyclo[3.1.0]hex-3-ylmethyl}-amide] | 74 nM | 51 nM |
| Cc1cccc(-c2sc(N)nc2C(=O)N2[C@H](CNC(=O)c3cccc(Br)c3)C[C@@H]3C[C@@H]32)c1 [Example 163, N-[(1S,3S,5S)-2-(2-Amino-5-m-tolyl-thiazole-4-carbonyl)-2-aza-bicyclo[3.1.0]hex-3-ylmethyl]-3-bromo-benzamide] | 57 nM | 62 nM |
| Cc1cccc(-c2sc(N)nc2C(=O)N2[C@H](CNC(=O)c3cccc4cccnc34)C[C@@H]3C[C@@H]32)c1 [Example 176, Quinoline-8-carboxylic acid [(1S,3S,5S)-2-(2-amino-5-m-tolyl-thiazole-4-carbonyl)-2-aza-bicyclo[3.1.0]hex-3-ylmethyl]-amide] | 57 nM | 45 nM |
| Cc1nc(C(=O)N2[C@H](CNC(=O)c3cccc4c3CCO4)C[C@@H]3C[C@@H]32)c(-c2ccc(Br)cc2)s1 [Example 192, 2,3-Dihydro-benzofuran-4-carboxylic acid {(1S,3S,5S)-2-[5-(4-bromo-phenyl)-2-methyl-thiazole-4-carbonyl]-2-aza-bicyclo[3.1.0]hex-3-ylmethyl}-amide] | 35 nM | 110 nM |
| Cc1nc(C(=O)N2[C@H](CNC(=O)c3cccc4c3CCO4)C[C@@H]3C[C@@H]32)c(-c2cccc(F)c2C)s1 [Example 199, 2,3-Dihydro-benzofuran-4-carboxylic acid {(1S,3S,5S)-2-[5-(3-fluoro-2-methyl-phenyl)-2-methyl-thiazole-4-carbonyl]-2-aza-bicyclo[3.1.0]hex-3-ylmethyl}-amide] | 41 nM | 139 nM |
| O=C(NC[C@@H]1C[C@@H]2C[C@@H]2N1C(=O)c1nc(C2CC2)sc1-c1ccccc1F)c1cccc2c1CCO2 [Example 208, 2,3-Dihydro-benzofuran-4-carboxylic acid {(1S,3S,5S)-2-[2-cyclopropyl-5-(2-fluoro-phenyl)-thiazole-4-carbonyl]-2-aza-bicyclo[3.1.0]hex-3-ylmethyl}-amide] | 34 nM | 58 nM |
| O=C(NC[C@@H]1C[C@@H]2C[C@@H]2N1C(=O)c1ncsc1-c1cccc(Cl)c1)c1cccc2c1CCO2 [Example 212, 2,3-Dihydro-benzofuran-4-carboxylic acid {(1S,3S,5S)-2-[5-(3-chloro-phenyl)-thiazole-4-carbonyl]-2-aza-bicyclo[3.1.0]hex-3-ylmethyl}-amide] | 102 nM | 109 nM |
| Cc1nc(C(=O)N2[C@H](CNC(=O)c3cccc4cccnc34)C[C@@H]3C[C@@H]32)c(-c2ccccc2)s1 [Example 230, Quinoline-8-carboxylic acid [(1S,3S,5S)-2-(2-methyl-5-phenyl-thiazole-4-carbonyl)-2-aza-bicyclo[3.1.0]hex-3-ylmethyl]-amide] | 100 nM | 13 nM |
| O=C(NC[C@@H]1C[C@@H]2C[C@@H]2N1C(=O)c1ncsc1-c1cccc(Cl)c1)c1cccc2cccnc12 [Example 235, Quinoline-8-carboxylic acid {(1S,3S,5S)-2-[5-(3-chloro-phenyl)-thiazole-4-carbonyl]-2-aza-bicyclo[3.1.0]hex-3-ylmethyl}-amide] | 452 nM | 88 nM |
| Cc1nc2sccn2c1C(=O)NC[C@@H]1C[C@@H]2C[C@@H]2N1C(=O)c1nc(N(C)C)sc1-c1ccccc1 [Example 246, 6-Methyl-imidazo[2,1-b]thiazole-5-carboxylic acid [(1S,3S,5S)-2-(2-dimethylamino-5-phenyl-thiazole-4-carbonyl)-2-aza-bicyclo[3.1.0]hex-3-ylmethyl]-amide] | 44 nM | 20 nM |
| Cc1cc(C)cc(-c2sc(C)nc2C(=O)N2[C@H](CNc3ncc(Br)cn3)C[C@@H]3C[C@@H]32)c1 [Example 255, {(1S,3S,5S)-3-[(5-Bromo-pyrimidin-2-ylamino)-methyl]-2-aza-bicyclo[3.1.0]hex-2-yl}-[5-(3,5-dimethyl-phenyl)-2-methyl-thiazol-4-yl]-methanone] | 291 nM | 37 nM |
| Cc1nc(C(=O)N2[C@H](CNc3ncc(Br)cn3)C[C@@H]3C[C@@H]32)c(-c2ccc(F)c(F)c2)s1 [Example 259, {(1S,3S,5S)-3-[(5-Bromo-pyrimidin-2-ylamino)-methyl]-2-aza-bicyclo[3.1.0]hex-2-yl}-[5-(3,4-difluoro-phenyl)-2-methyl-thiazol-4-yl]-methanone] | 145 nM | 62 nM |
| O=C(c1nc(C2CC2)sc1-c1ccccc1)N1[C@H](CNc2ncc(Br)cn2)C[C@@H]2C[C@@H]21 [Example 265, {(1S,3S,5S)-3-[(5-Bromo-pyrimidin-2-ylamino)-methyl]-2-aza-bicyclo[3.1.0]hex-2-yl}-(2-cyclopropyl-5-phenyl-thiazol-4-yl)-methanone] | 68 nM | 131 nM |
| Cc1cccc(-c2sc(C)nc2C(=O)N2[C@H](CNc3nccc(C(F)(F)F)n3)C[C@@H]3C[C@@H]32)c1 [Example 274, (2-Methyl-5-m-tolyl-thiazol-4-yl)-{(1S,3S,5S)-3-[(4-trifluoromethyl-pyrimidin-2-ylamino)-methyl]-2-aza-bicyclo[3.1.0]hex-2-yl}-methanone] | 98 nM | 110 nM |
| CCc1cnc(NC[C@@H]2C[C@@H]3C[C@@H]3N2C(=O)c2nc(C)sc2-c2cccc(C)c2)nc1 [Example 277, {(1S,3S,5S)-3-[(5-Ethyl-pyrimidin-2-ylamino)-methyl]-2-aza-bicyclo[3.1.0]hex-2-yl}-(2-methyl-5-m-tolyl-thiazol-4-yl)-methanone] | 154 nM | 42 nM |
